According to patent US20240226241A1, “FORMULATIONS FOR INTRAOCULAR DELIVERY OF PEPTIDES DERIVED FROM TYPE IV COLLAGEN” (AsclepiX Therapeutics, Inc., priority 2022, published 2024):
No end group written: not given here.

What was measured:
[1] = rabbit, in vivo
Description: (§1) This example evaluates the pharmacokinetics (PK)/tolerability of the AXT107 suspension (5% sucrose, 0.9% NaCl) at 4 different dose levels administered by suprachoroidal (Sch) injection in female Dutch Belted rabbits. In Phase 1 of these experiments, animals received a 100 μL SCh injection in both eyes on Day 0. In these experiments, Group 1 received 469 μg of AXT107 peptide, Group 2 received 246 μg of AXT107 peptide, and Group 3 received vehicle (i.e., 5% sucrose in saline).
(§2) Blood was collected from Group 3 pre-dose, and in terminal animals on Day 90, and was processed for plasma. All eyes in Groups 1 and 2 and two Group 3 eyes were collected and dissected. Blood and ocular tissues underwent PK analysis.
(§3) In the next studies, animals received a 100 μL SCh injection (of AXT107 suspension, 5% sucrose and 0.9% NaCl) in both eyes on Day 0. Group 1 animals received 340 μg of AXT107 peptide, Group 2 animals received 219 μg AXT107 peptide, Group 3 animals received 142 μg of AXT107 peptide, and Group 4 animals received 115 μg AXT107 peptide.
(§4) On Days 1, 15, 30, 60, and 90, n=2 animals/group were euthanized and plasma and ocular tissues were collected for PK.
(§5) Plasma and ocular tissues collected during the study were analyzed for AXT107 peptide PK parameters by non-GLP liquid chromatography with tandem-mass spectrometry (LC/MS/MS).

[2] = Pharmacokinetics after suprachoroidal injection, LC/MS/MS of plasma and ocular tissues; settings: SCh injection
Description: as §1, §2, §3, §4, §5

[3] = Tolerability after suprachoroidal injection (ocular examination, tonometry, OCT, H&E histopathology); settings: for tolerability: 100 μL SCh injection in both eyes on Day 0, to Day 90
Description: This example evaluates the pharmacokinetics (PK)/tolerability of the AXT107 suspension (5% sucrose, 0.9% NaCl) at 4 different dose levels administered by suprachoroidal (Sch) injection in female Dutch Belted rabbits. In Phase 1 of these experiments, animals received a 100 μL SCh injection in both eyes on Day 0.
Ocular examinations were performed at baseline, and on Days 1, 3, 7, 15, 30, 60, and 90. […] Tonometry was performed at baseline, and on Days 1, 3, 7, 15, 30, 60, and 90. […] Optical coherence tomography (OCT) was performed at baseline, post-dose to confirm SCh dosing, and on Day 15.
All eyes in Groups 1 and 2 and two Group 3 eyes were collected and dissected. […] From Group 3, two eyes were collected and processed for hematoxylin & eosin (H&E) histopathology.
In the next studies, animals received a 100 μL SCh injection (of AXT107 suspension, 5% sucrose and 0.9% NaCl) in both eyes on Day 0. […] Ocular examinations were performed at baseline and on Days 1, 9, 30, 60, and 90.
Tonometry was performed at baseline and on Days 1, 9, 30, 60, and 90.
OCT was performed at baseline, post-dose to confirm SCh dosing, and in terminal animals on Days 15 and 30.
On Day 90, an additional Group 1 animal was euthanized and OU were processed for H&E histopathology.

## LRRFSTAPFAFIDINDVINF [AXT107 peptide]
[1]
  drug levels in choroid/RPE: present
[2]
  drug levels in retina: present
[2]; all timepoints
  drug levels in aqueous humor: absent
  drug levels in plasma: absent
[3]; Group 1 (340 μg), Day 90, both eyes, considered incidental (needle damage), unrelated to AXT107
  H&E histopathology of eyes: mild mononuclear cell infiltrate in the limbal conjunctiva
[3]; Phase 1: 469 μg and 246 μg
  tolerability: well tolerated
[3]; all doses
  tolerability: well tolerated
